Reference: ChEMBL document CHEMBL1201862, “PubChem BioAssay data set” (2004)
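Cells were grown in 96-well plates and exposed to each compound for 48 hours at five concentrations; endpoints were interpolated linearly between bracketing concentrations, or set to the highest concentration if not reached. GI50 = concentration required for 50% inhibition of growth.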 Active and inactive are the calls of the source. Rule as the data show it: active = GI50 up to about 1.1 µM and inactive = higher.

What was measured:
Test in all cases: growth of human tumour cells (NCI), 48 h
[1] = test system: NCI-H226
[2] = test system: HOP-92
[3] = test system: OVCAR-5
[4] = test system: OVCAR-4
[5] = test system: SNB-75
[6] = test system: A498
[7] = test system: DMS-114
[8] = test system: HT-29
[9] = test system: CAKI-1
[10] = test system: UO-31
[11] = test system: SF-268
[12] = test system: SK-MEL-5
[13] = test system: LOX IMVI
[14] = test system: DU-145
[15] = test system: Hs-578T
[16] = test system: MDA-MB-435
[17] = test system: BT-549
[18] = test system: MDA-MB-231
[19] = test system: MCF7
[20] = test system: T47D

| Structure (SMILES) | GI50 [1] | GI50 [2] | GI50 [3] | GI50 [4] | GI50 [5] | GI50 [6] | GI50 [7] | GI50 [8] | GI50 [9] | GI50 [10] | GI50 [11] | GI50 [12] | GI50 [13] | GI50 [14] | GI50 [15] | GI50 [16] | GI50 [17] | GI50 [18] | GI50 [19] | GI50 [20] |
| --- | --- | --- | --- | --- | --- | --- | --- | --- | --- | --- | --- | --- | --- | --- | --- | --- | --- | --- | --- | --- |
| Cc1ccc(S(=O)(=O)NC2(C=O)CCC(C(C)(C)C)CC2)cc1 (configuration not stated) | > 100 µM (inactive) | 30.7 µM (inactive) | 79.3 µM (inactive) | 27.7 µM (inactive) | 45.2 µM (inactive) | 89.9 µM (inactive) | 20.4 µM (inactive) | 32.1 µM (inactive) | > 100 µM (inactive) | 38.1 µM (inactive) | 38.9 µM (inactive) | 21.9 µM (inactive) |  |  |  |  |  |  |  |  |
| C[C@@H]1OC(=O)N2CCCC(=C3SCCCS3)C12 (some centres not stated) | 44.9 µM (inactive) | 29.6 µM (inactive) | > 100 µM (inactive) | > 100 µM (inactive) | 51.2 µM (inactive) | > 100 µM (inactive) | 25.1 µM (inactive) | 70.1 µM (inactive) |  | 19.4 µM (inactive) | 61.9 µM (inactive) |  | 94 µM (inactive) |  |  |  |  |  |  |  |
| Cc1cc2c(C(C)C)c(O)c(O)c(/C=N\CCO)c2c(O)c1-c1c(C)cc2c(C(C)C)c(O)c(O)c(/C=N/CCO)c2c1O | 2.51 µM (inactive) | 1.75 µM (inactive) | 3.66 µM (inactive) | 3.6 µM (inactive) | 2.67 µM (inactive) | 3.36 µM (inactive) | 1.23 µM (inactive) | 2.28 µM (inactive) | 5.24 µM (inactive) | 3.44 µM (inactive) | 1.39 µM (inactive) | 1.73 µM (inactive) | 1.64 µM (inactive) |  |  |  |  |  |  |  |
| NC1=NCC(c2ccccn2)C1c1ccc(F)cc1 (configuration not stated) | > 100 µM (inactive) | > 100 µM (inactive) | > 100 µM (inactive) | > 100 µM (inactive) | > 100 µM (inactive) | > 100 µM (inactive) | > 100 µM (inactive) | > 100 µM (inactive) | > 100 µM (inactive) | > 100 µM (inactive) | > 100 µM (inactive) | > 100 µM (inactive) | > 100 µM (inactive) |  |  |  |  |  |  |  |
| COc1cc(-c2ccc(Nc3ccccc3C(=O)O)c(OC)c2)ccc1Nc1ccccc1C(=O)O | 22.6 µM (inactive) | 41 µM (inactive) | > 37.5 µM (inactive) | 28.2 µM (inactive) | 30.2 µM (inactive) | > 47.2 µM (inactive) | 25.4 µM (inactive) | 31 µM (inactive) | 8.69 µM (inactive) | 13.6 µM (inactive) | 11.4 µM (inactive) | 16.6 µM (inactive) | 1.28 µM (inactive) | 8.65 µM (inactive) | 11.3 µM (inactive) | 8.59 µM (inactive) | 15.8 µM (inactive) | 13.7 µM (inactive) | 5080 nM (inactive) | 11.2 µM (inactive) |
| O=C1C(N2C(=O)c3ccccc3C2=O)CN1C(COCc1ccccc1)c1ccc(OCc2ccccc2)cc1 (configuration not stated) | > 100 µM (inactive) | > 100 µM (inactive) | > 100 µM (inactive) | > 100 µM (inactive) | > 100 µM (inactive) | > 100 µM (inactive) | > 100 µM (inactive) | > 100 µM (inactive) | > 100 µM (inactive) | > 100 µM (inactive) | > 100 µM (inactive) | > 100 µM (inactive) | > 100 µM (inactive) |  |  |  |  |  |  |  |
| CC[C@@]1(O)C(=O)OCc2c1c(Cl)c1n(c2=O)Cc2cc3ccccc3nc2-1 | 2.14 µM (inactive) | 7.62 µM (inactive) | 5.07 µM (inactive) | 8.97 µM (inactive) | 1.84 µM (inactive) | 2.18 µM (inactive) | 1.35 µM (inactive) | 2.18 µM (inactive) | 0.736 µM (active) | 1.26 µM (inactive) | 1.31 µM (inactive) | 1.75 µM (inactive) | 1.16 µM (inactive) | 1.92 µM (inactive) | 31.4 µM (inactive) | 8.95 µM (inactive) | 8.67 µM (inactive) | 61 µM (inactive) | 708 nM (active) | 1.31 µM (inactive) |
| Cn1c2ccccc2c(=O)c2c(O)cc3c(c21)CC(C1(C)CO1)O3 (configuration not stated) | 13.3 µM (inactive) | 9.08 µM (inactive) | 6.53 µM (inactive) | 8.83 µM (inactive) | 7.28 µM (inactive) | 11.2 µM (inactive) | 2.13 µM (inactive) | 4.41 µM (inactive) | 2.99 µM (inactive) | 1.42 µM (inactive) | 0.942 µM (active) | 1.79 µM (inactive) | < 0.0111 µM (active) | 10.7 µM (inactive) | 2 µM (inactive) | 1.64 µM (inactive) | 1.67 µM (inactive) | 2.03 µM (inactive) | 462 nM (active) | 11.5 µM (inactive) |
